Read-outs that look alike come from different tables or passages of the source.
What was measured:
[1] = system: SOC (store operated calcium channel); assay: Measurement of SOC IC50 (thapsigargin store depletion, calcium re-addition, CHO cells); format: cell-based; conditions: read-out: SOC IC50
Method: The SOC (store operated calcium channel)-suppressive action can be measured by the method described in the Example and using, for example, FDSS 3000.
CHO cell culture medium was replaced with a BSS solution which is an extracellular fluidfree of calcium, the compound of the present invention was added 1 min later, and 1 μM thapsigargin was allowed to act thereon 2 min later to deplete intracellular calcium store. […]

[2] = system: transglutaminase (TGase); assay: Measurement of TG (TGase inhibitory activity, monodansyl cadaverine / N,N-dimethylcasein fluorescence, FDSS 3000); format: biochemical
Outline: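 Compound (1 μL of 10 mM stock) added to 0.1 mL reaction: 100 mM HEPES-NaOH pH 7.5, 1 mM CaCl2, 20 μM monodansyl cadaverine, 0.05 mg/mL N,N-dimethylcasein, 5 μg/mL TGase. Rate of fluorescence change at 340 nm measured; DMSO control set to 100; TG50 is the concentration halving activity.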

[3] = system: Truncated N-terminal huntington 150 Q-EGFP-Neuron 2a cells; assay: Measurement of x-Fold (polyglutamine aggregation inhibitory activity); format: cell-based
Method: In the present invention, the polyglutamine aggregation inhibitory activity (x-Fold) can be measured, for example, by the method described in the Example.
The number of the aggregated cells, and the total number of cells were counted by Array Scan V T1 (manufactured by Cellomics, Pittuburg, USA), and the ratio of the aggregated cells to the total number of cells was determined (x-Fold). […]

[4] = CHO cells, 1 μM thapsigargin, 2 mM calcium chloride
[5] = TGase activity with compound (10 mM, 1 μL in 0.1 ml enzyme reaction solution), DMSO control taken as 100
[6] = TGase inhibitory activity measurement, unit not given
[7] = polyglutamine aggregation inhibitory activity, Table 1
[8] = polyglutamine aggregation, Truncated N-terminal huntington 150 Q-EGFP-Neuron 2a cells
[9] = ratio of aggregated cells to total number of cells, compound 20 μM, 20 hr, almost 1 without compound, smaller = stronger inhibition
[10] = Cricetulus griseus, CHO, CHO cells, 1 μM thapsigargin, 2 mM calcium chloride
[11] = Cricetulus griseus, CHO, Table 1
[12] = TGase inhibitory activity value, Table 1

For `Cc1ccc(B(OCCN(C)C)c2ccc(COCc3ccc(B(OCCN(C)C)c4ccc(C)c(Cl)c4)cc3)cc2)cc1Cl` [Example 422, bis(4,4′-(3-chloro-4-methylphenyl-N,N-dimethylaminoethoxyboryl)benzyl)ether], the IC50 [1, 4] was 1200 nM, the IC50 ([1]; Table 1) was 700 nM and the “TGase activity remaining (% of DMSO control = 100)” value [2, 5] was 13. For the same compound, the “TGase activity remaining (% of DMSO control = 100)” value [2, 6] was 13, the x-Fold [3, 7] was 0.91 and the x-Fold [3, 8] was 0.95. For the same compound, the x-Fold [3, 9] was 0.95.

In the case of `O=C1O[B-](c2ccccc2)(c2ccccc2)[NH2+]C1CO` (centres unmarked) [Example 255, diphenyl(serinate-O,N)borane], the IC50 [1, 10] is reported as 500 nM, the IC50 [1, 11] is reported as 500 nM and the “TGase activity remaining (% of DMSO control = 100)” value [2, 5] is reported as 113. The “TGase activity remaining (% of DMSO control = 100)” value [2, 12] was 113, the x-Fold [3, 7] was 0.94 and the x-Fold [3, 9] was 0.94.

For `CN1CCCCC1COB(c1ccccc1)c1ccc(COCc2ccc(B(OCC3CCCCN3C)c3ccccc3)cc2)cc1` (centres unmarked) [Example 457, bis(4,4′-(phenyl-N-methylpiperidine-methoxyboryl)benzyl)ether], the IC50 [1, 4] was 600 nM, the “TGase activity remaining (% of DMSO control = 100)” value [2, 5] was 30 and the “TGase activity remaining (% of DMSO control = 100)” value [2, 6] was 30. It also gave a x-Fold [3, 8] of 1.10 and a x-Fold [3, 9] of 1.10.

In the case of “4,4′-((2-aminoethoxy)(3-chloro-4-methylphenyl)boryl)diphenylether [Example 249]”, the IC50 [1, 4] is reported as 300 nM, the “TGase activity remaining (% of DMSO control = 100)” value [2, 5] is reported as 25 and the “TGase activity remaining (% of DMSO control = 100)” value [2, 12] is reported as 25. The x-Fold [3, 7] was 0.74 and the x-Fold [3, 9] was 0.74.

With `CC(C)(C)B(O)c1ccccc1` [Example 109, tertiary-butyl phenyl borinic acid] the IC50 [1, 10] was > 10000 nM, the IC50 [1, 11] was > 10000 nM and the “TGase activity remaining (% of DMSO control = 100)” value [2, 5] was 108. The “TGase activity remaining (% of DMSO control = 100)” value [2, 12] was 108, the x-Fold [3, 7] was 1.02 and the x-Fold [3, 9] was 1.02.

For `NCCCC(N)C(=O)OB(c1ccccc1)c1cccc(COCc2cccc(B(OC(=O)C(N)CCCN)c3ccccc3)c2)c1` (centres unmarked) [Example 476, bis(3,3′-(phenyl-ornithineboryl)benzyl)ether], the IC50 [1, 4] was 1500 nM, the “TGase activity remaining (% of DMSO control = 100)” value [2, 5] was 103 and the “TGase activity remaining (% of DMSO control = 100)” value [2, 6] was 103. It also gave a x-Fold [3, 8] of 0.95 and a x-Fold [3, 9] of 0.95.

With `CC(CN)OB(c1ccccc1)c1cccc(COCc2cccc(B(OC(C)CN)c3ccccc3)c2)c1` (centres unmarked) [Example 465, bis(3,3′-(phenyl-1-methyl-2-aminoethoxyboryl)benzyl)ether] the IC50 [1, 4] was 200 nM, the “TGase activity remaining (% of DMSO control = 100)” value [2, 5] was 18 and the “TGase activity remaining (% of DMSO control = 100)” value [2, 6] was 18. The x-Fold [3, 8] was 1.06 and the x-Fold [3, 9] was 1.06.

For `OB(c1ccccc1)c1ccccc1` [Example 488, diphenylborinic acid], the IC50 [1, 10] was 4000 nM, the IC50 ([1]; Cricetulus griseus, CHO, CHO cells, thapsigargin store depletion) was 4000 nM and the “TGase activity remaining (% of DMSO control = 100)” value [2, 5] was 108. The “TGase activity remaining (% of DMSO control = 100)” value [2, 6] was 108, the x-Fold [3, 7] was 0.83 and the x-Fold [3, 8] was 1.01. The x-Fold [3, 9] was 1.01.

`CN(C)CCOB(c1ccccc1)c1ccc(COc2ccc(B(OCCN(C)C)c3ccccc3)cc2)cc1` [Example 428, (4-phenyl-N,N-dimethylaminoethoxyborylphenyl) (4′-phenyl-N,N-dimethylaminoethoxyborylbenzyl)ether] was tested, and the IC50 [1, 4] was 1500 nM, the “TGase activity remaining (% of DMSO control = 100)” value [2, 5] was 53 and the “TGase activity remaining (% of DMSO control = 100)” value [2, 6] was 53. For the same compound, the x-Fold [3, 7] was 0.98, the x-Fold [3, 8] was 0.82 and the x-Fold [3, 9] was 0.82.

For `CCCCC(N)C(=O)OB(c1ccc(C)c(Cl)c1)c1ccc(C)c(Cl)c1` (centres unmarked) [Example 292, di(3-chloro-4-methylphenyl)(norloysinate-O,N)borane], the IC50 [1, 10] was 1000 nM, the IC50 [1, 11] was 1000 nM and the “TGase activity remaining (% of DMSO control = 100)” value [2, 5] was 146. For the same compound, the “TGase activity remaining (% of DMSO control = 100)” value ([2]; TGase inhibitory activity value, Table 1, listed as 5020) was 146, the x-Fold ([3]; polyglutamine aggregation inhibitory activity, Table 1, listed as 5020) was 1.00 and the x-Fold [3, 9] was 1.00.

In the case of `CCCCNCCOB(c1ccccc1)c1cccc(COCc2cccc(B(OCCNCCCC)c3ccccc3)c2)c1` [Example 473, bis(3,3′-(phenyl-N-butylaminoethoxyboryl)benzyl)ether], the IC50 [1, 4] is reported as 500 nM, the “TGase activity remaining (% of DMSO control = 100)” value [2, 6] is reported as −4 and the x-Fold [3, 8] is reported as 0.96. The x-Fold [3, 9] was 0.96.

In the case of `OB(c1ccccc1)c1cccc(B(O)c2ccccc2)c1` [Example 119, 1,3-bis(phenylhydroxyboryl)benzene], the IC50 [1, 10] is reported as > 20000 nM, the “TGase activity remaining (% of DMSO control = 100)” value [2, 5] is reported as 101 and the x-Fold [3, 9] is reported as 0.84.

For `NCCOB(c1ccccc1)c1cccc(COCc2cccc(Oc3ccccc3)c2)c1` [Example 278, (3-phenoxybenzyl)-(3′-(phenyl-2-aminoethoxyboryl)benzyl)ether], the IC50 [1, 10] was 300 nM, the IC50 [1, 11] was 300 nM and the “TGase activity remaining (% of DMSO control = 100)” value [2, 5] was 2. For the same compound, the “TGase activity remaining (% of DMSO control = 100)” value [2, 12] was 2, the x-Fold [3, 7] was 1.08 and the x-Fold [3, 9] was 1.08.

In the case of `NC(=O)CCC(N)C(=O)OB(c1ccccc1)c1ccc(Oc2ccc(B(OC(=O)C(N)CCC(N)=O)c3ccc(CO)cc3)cc2)cc1` (centres unmarked) [Example 394, (4-(phenyl-glutamineboryl)phenyl)(4′-(hydroxymethylphenyl-glutamineboryl)phenyl)ether], the IC50 [1, 10] is reported as 1500 nM, the IC50 [1, 11] is reported as 1500 nM and the “TGase activity remaining (% of DMSO control = 100)” value [2, 5] is reported as 41. The “TGase activity remaining (% of DMSO control = 100)” value [2, 12] was 41, the x-Fold [3, 7] was 0.44 and the x-Fold [3, 9] was 0.44.

With `OB(c1ccccc1)c1cccc(COCc2cccc(B(O)c3ccccc3)c2)c1` [Example 7, bis(3,3′-(phenylhydroxyboryl)benzyl)ether] the IC50 [1, 4] was 200 nM, the “TGase activity remaining (% of DMSO control = 100)” value [2, 5] was 14 and the x-Fold [3, 9] was 1.03.

For `Cc1ccc(B(O)c2ccc(COCc3ccc(B(O)c4ccc(C)cc4)cc3)cc2)cc1` [Example 361, bis(4-(4-methylphenylhydroxyboryl)benzyl)ether], the IC50 [1, 10] was > 20000 nM, the IC50 [1, 11] was > 20000 nM and the “TGase activity remaining (% of DMSO control = 100)” value [2, 5] was 100. The “TGase activity remaining (% of DMSO control = 100)” value [2, 12] was 100, the x-Fold [3, 7] was 0.88 and the x-Fold [3, 9] was 0.88.

For `CN(C)CCOB(c1ccccc1)c1cccc(COCc2cccc(B(OCCN(C)C)c3ccccc3)c2)c1` [Example 464, bis(3,3′-(phenyl-dimethylaminoethoxyboryl)benzyl)ether], the IC50 ([1]; CHO cells, 1 μM thapsigargin, 2 mM calcium chloride, no unit printed) was 800 nM, the “TGase activity remaining (% of DMSO control = 100)” value [2, 5] was 41 and the “TGase activity remaining (% of DMSO control = 100)” value ([2]; TGase inhibitory activity measurement, unit not given, listed as 3021) was 41. For the same compound, the x-Fold ([3]; polyglutamine aggregation, Truncated N-terminal huntington 150 Q-EGFP-Neuron 2a cells, listed as 3021) was 0.76 and the x-Fold [3, 9] was 0.76.

`c1ccc(B(OCc2ccccn2)c2ccc(Oc3ccc(B(OCc4ccccn4)c4ccccc4)cc3)cc2)cc1` [Example 432, bis(4,4′-(phenyl-2-pyridylmethoxyboryl)phenyl)ether] was tested, and the IC50 [1, 4] was 300 nM, the “TGase activity remaining (% of DMSO control = 100)” value [2, 5] was 60 and the “TGase activity remaining (% of DMSO control = 100)” value [2, 6] was 60. It also gave a x-Fold [3, 8] of 0.71 and a x-Fold [3, 9] of 0.71.

For `CNCCOB(c1ccc(COCc2ccc(B(OCCNC)c3ccc(OC)cc3)cc2)cc1)c1ccc(OC)cc1` [Example 413, bis(4,4′-(p-methoxyphenyl-N-methylaminoethoxyboryl)benzyl)ether], the IC50 [1, 4] was 800 nM, the “TGase activity remaining (% of DMSO control = 100)” value [2, 5] was 28 and the “TGase activity remaining (% of DMSO control = 100)” value [2, 6] was 28. It also gave a x-Fold [3, 8] of 0.81 and a x-Fold [3, 9] of 0.81.

For `NC(=O)NCCCC(N)C(=O)OB(c1ccccc1)c1ccccc1` (centres unmarked) [Example 307, diphenyl(citrullinate-O,N)borane], the IC50 [1, 10] was 500 nM, the IC50 [1, 11] was 500 nM and the “TGase activity remaining (% of DMSO control = 100)” value [2, 5] was 54. The “TGase activity remaining (% of DMSO control = 100)” value [2, 12] was 54, the x-Fold [3, 7] was 1.06 and the x-Fold [3, 9] was 1.06.

For `NC(CCC(=O)O)C(=O)OB(c1ccccc1)c1ccc(Oc2ccc(B(OC(=O)C(N)CCC(=O)O)c3ccc(CO)cc3)cc2)cc1` (centres unmarked) [Example 275, (4-(phenyl-glutamic acid boryl)phenyl)-(4′-(hydroxymethylphenyl-glutamic acid boryl)phenyl)ether], the IC50 [1, 10] was 300 nM, the “TGase activity remaining (% of DMSO control = 100)” value [2, 5] was 117 and the x-Fold [3, 9] was 0.67.

With `CCCCNCCOB(c1ccc(C)c(Cl)c1)c1ccc(C)c(Cl)c1` [Example 210, di(3-chloro-4-methylphenyl)butylaminoethyl borinate] the IC50 [1, 10] was 2000 nM, the IC50 [1, 11] was 2000 nM and the “TGase activity remaining (% of DMSO control = 100)” value [2, 5] was 27. The “TGase activity remaining (% of DMSO control = 100)” value [2, 12] was 27, the x-Fold [3, 7] was 0.98 and the x-Fold [3, 9] was 0.98.

From US8853424B2 (Japan Science and Technology Agency, priority 2008, dated 2014)
